Test results from the supplement of paper PMC10307832.

Assays:
Experiment in all cases: relative viability (nuclei count vs DMSO), 5 days (fraction); higher = more cells survive
[1] = compound: CC1=C(C(=NN1)C)CC2=C(C3=C(S2)N(C(=O)N(C3=O)C)CC(C)C)C(=O)N4C[C@@H](CO4)O + CCNC(=O)c1noc(-c2cc(C(C)C)c(O)cc2O)c1-c1ccc(CN2CCOCC2)cc1 [Luminespib] (partner 0.01 µM)
How it was run: (§1)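 Dosing by pin tool came one day after lung cancer cell lines were seeded in 1536-well plates, using either one drug or a fixed anchor-drug dose plus five library-drug doses (not always all listed) in √10 steps. After 5 days, nuclei were counted on 4× images. Relative viability is treated-well nuclei count divided by vehicle-well nuclei count, and values are medians of duplicate plates.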

IDH-C35 + OSI-027 = compound: Cc1ccccc1C(C(=O)NC1CCCCC1)N(C(=O)Cn1ccnc1C)c1cccc(F)c1 [IDH-C35] + COc1cccc2cc(-c3nc([C@H]4CC[C@H](C(=O)O)CC4)n4ncnc(N)c34)[nH]c12 [OSI-027] (partner 0.5 µM)
How it was run: as §1

[2] = compound: CC1=C(C(=NN1)C)CC2=C(C3=C(S2)N(C(=O)N(C3=O)C)CC(C)C)C(=O)N4C[C@@H](CO4)O + CS(=O)(=O)N1CCN(Cc2cc3nc(-c4cccc5[nH]ncc45)nc(N4CCOCC4)c3s2)CC1 [Pictilisib] (partner 1 µM)
How it was run: as §1

IDH-C35 + AZD7762 = compound: Cc1ccccc1C(C(=O)NC1CCCCC1)N(C(=O)Cn1ccnc1C)c1cccc(F)c1 [IDH-C35] + NC(=O)Nc1cc(-c2cccc(F)c2)sc1C(=O)N[C@H]1CCCNC1 [AZD7762] (partner 0.2 µM)
How it was run: as §1

Cell Line | relative viability ([1]; first compound 0.0025 µM) | relative viability ([1]; first compound 0.007906 µM) | relative viability ([1]; first compound 0.025 µM) | relative viability ([1]; first compound 0.07906 µM) | relative viability ([1]; first compound 0.25 µM) | relative viability (IDH-C35 + OSI-027; first compound 0.08 µM) | relative viability (IDH-C35 + OSI-027; first compound 0.253 µM) | relative viability (IDH-C35 + OSI-027; first compound 0.8 µM) | relative viability (IDH-C35 + OSI-027; first compound 2.53 µM) | relative viability (IDH-C35 + OSI-027; first compound 8 µM) | relative viability ([2]; first compound 0.0025 µM) | relative viability ([2]; first compound 0.007906 µM) | relative viability ([2]; first compound 0.025 µM) | relative viability ([2]; first compound 0.07906 µM) | relative viability ([2]; first compound 0.25 µM) | relative viability (IDH-C35 + AZD7762; first compound 0.08 µM) | relative viability (IDH-C35 + AZD7762; first compound 0.253 µM) | relative viability (IDH-C35 + AZD7762; first compound 0.8 µM) | relative viability (IDH-C35 + AZD7762; first compound 8 µM) | relative viability (IDH-C35 + AZD7762; first compound 2.53 µM)
LCLC-97TM1 | 0.611 | 0.774 | 0.889 | 0.698 | 0.801 | 0.557 | 0.614 | 0.508 | 0.447 | 0.421 | 0.188 | 0.268 | 0.22 | 0.182 | 0.199 | 0.265 | 0.384 | 0.143 | 0.192 | –
LCLC-103H | 0.966 | 0.885 | 0.976 | 0.939 | 1.1 | 0.458 | 0.487 | 0.473 | 0.428 | 0.457 | 0.682 | 0.615 | 0.704 | 0.517 | 0.721 | 0.831 | 0.792 | 0.81 | 0.829 | 0.779
LK-2 | 0.219 | 0.148 | 0.223 | 0.202 | 0.186 | 0.213 | 0.226 | 0.188 | 0.24 | 0.236 | 0.548 | 0.509 | 0.67 | 0.696 | 0.607 | 0.422 | 0.542 | 0.37 | 0.336 | 0.444
LOU-NH91 | 0.371 | 0.359 | 0.331 | 0.363 | 0.223 | 0.742 | 0.76 | 0.743 | 0.716 | 0.732 | 0.503 | 0.494 | 0.495 | 0.571 | 0.529 | 0.805 | 0.73 | 0.753 | 0.815 | 0.765
LU99A | 0.337 | 0.297 | 0.203 | 0.224 | 0.237 | 0.335 | 0.329 | 0.276 | 0.293 | 0.286 | 0.351 | 0.314 | 0.331 | 0.345 | 0.327 | 0.326 | 0.398 | 0.396 | 0.36 | 0.335
LXF-289 | 0.774 | 0.684 | 0.56 | 0.613 | 0.783 | 0.79 | 0.761 | 0.757 | 0.783 | 0.709 | 0.862 | 0.82 | 0.779 | 0.804 | 0.826 | 1.1 | 1.06 | 1.13 | 1.19 | 1.06
NCI-H23 | 0.242 | – | – | 0.23 | 0.219 | 0.582 | 0.635 | 0.558 | 0.392 | 0.453 | 0.528 | 0.489 | 0.523 | 0.494 | 0.651 | 0.239 | 0.253 | 0.229 | 0.272 | 0.359
NCI-H322M | 0.927 | 0.714 | 0.86 | 0.887 | 0.861 | 0.585 | 0.566 | 0.628 | 0.549 | 0.511 | 0.519 | 0.504 | 0.562 | 0.58 | 0.5 | 0.532 | 0.65 | 0.476 | 0.546 | 0.538
NCI-H358 | 0.342 | 0.471 | 0.401 | 0.447 | 0.308 | 0.776 | 0.757 | 0.698 | 0.775 | 0.756 | 0.41 | 0.348 | 0.359 | 0.375 | 0.375 | 0.609 | 0.544 | 0.477 | 0.426 | 0.492
NCI-H441 | 0.413 | 0.405 | 0.326 | 0.365 | 0.269 | 0.617 | 0.647 | 0.538 | 0.675 | 0.579 | 0.575 | 0.446 | 0.431 | 0.616 | 0.656 | 1.39 | 1.31 | 1.09 | 0.98 | 1.21
NCI-H460 | 0.0312 | 0.0506 | 0.037 | 0.0359 | 0.028 | 0.659 | 0.757 | 0.681 | 0.644 | 0.602 | 0.432 | 0.492 | 0.356 | 0.367 | 0.387 | 0.623 | 0.663 | 0.609 | 0.578 | 0.586
NCI-H596 | 0.991 | 1.12 | 0.992 | 1.03 | 1.24 | 0.787 | 0.806 | 0.709 | – | 0.629 | 0.387 | 0.369 | 0.387 | 0.431 | 0.593 | 0.959 | 1.14 | 1.01 | 1.26 | 1.05
NCI-H647 | 0.135 | 0.138 | 0.171 | 0.325 | 0.163 | 0.683 | 0.676 | 0.573 | 0.569 | 0.665 | 0.494 | 0.444 | – | 0.525 | 0.483 | 0.489 | 0.488 | 0.424 | 0.418 | 0.42
NCI-H650 | 0.84 | 0.798 | 0.72 | 0.829 | 0.951 | 0.558 | 0.571 | 0.466 | – | 0.509 | 0.898 | 0.826 | 0.819 | 0.824 | 0.926 | 1.04 | 1.26 | 1.13 | 0.97 | –
NCI-H727 | 0.309 | 0.378 | 0.387 | 0.369 | 0.387 | 0.805 | 0.474 | 0.464 | 0.588 | 0.592 | 0.403 | 0.483 | 0.336 | 0.385 | 0.517 | 0.633 | 0.655 | 0.539 | 0.597 | 0.469
NCI-H838 | 0.295 | 0.265 | 0.312 | 0.273 | 0.239 | 0.406 | 0.402 | 0.369 | 0.383 | 0.398 | 0.506 | 0.507 | 0.607 | 0.511 | 0.552 | 1.09 | 0.922 | 0.918 | 0.925 | 0.953
